In patent publication US12078642B2, “Methods for evaluating and improving cognitive function” (THE UNIVERSITY OF MELBOURNE, priority 2017, dated 2024):
“And” between values parts separate entries of the source, which are not always exact repeats. Equal values may be shown once.

Test system: old mice
Assay: Barnes Maze cognitive function (memory) test
Type: in vivo, mouse
Conditions: for Time searching for the escape hatch in the target zone after CE 18:1 versus before (FIG. 11): old mice (24 months), same mice before and after CE 18:1 enriched diet, 470 mg per kg
Method: The cognitive function of the mice was tested using a Barnes Maze. The Barnes maze makes use of a mouse's nature to avoid bright lights and open spaces. The Barnes maze was a white 150 cm disk with 36 evenly spaced holes. The disk is elevated 64 cm above the ground and four visual cues—two 3D cues and two 2D cues—are placed in four quadrants, denoting four possible escape holes. The escape box was placed under the assigned escape hole and fastened by tape. Four portable floodlights were used to evenly illuminate the maze and a light meter was used to ensure consistent brightness of 3400 to 3600 lux. Prior to the beginning of a trial, the maze and the escape box were cleaned with 80% ethanol to remove olfactory cues.
The mouse was placed in the centre of the maze under a cover. The cover was then retracted using a pulley system and the mouse was allowed to explore the maze for four minutes to find and enter the escape hole. If the mouse entered the escape hole in less than four minutes, the time was recorded and the floodlights switched off. If the mouse had not entered the escape hole after four minutes, the mouse was gently guided to the escape hole and lights were switched off. The mouse was allowed to remain in the escape box for one minute before it was returned to its home box outside the experimental room. For the probe trial, the escape box was removed and the trial length was shortened to 3 minutes (180 seconds). The duration required, distance traveled, and latency to the assigned escape hole was recorded using topscan lite 2.0. The time the mouse spent in the “target zone” (the 5 holes consisting of the assigned escape hole and the two holes on either side) searching for the assigned escape hole was also recorded.
Trials were conducted over seven days; day 1 contained a single habituation trial, days 2-6 contained 3 acquisition trials a day and day 7 contained a single probe trial. […]
The CE 18:1 oral administration consisted of 20 mg CE 18:1 suspended in 0.5 g of raspberry flavoured agar jelly. To prepare the CE 18:1 enriched jelly, 4 g of agar powder and 0.1 g NaOH pellets was dissolved in 13 ml raspberry flavoured cordial, with MilliQ water added q.s. to form a total of 200 mL jelly solution. To the jelly solution, 400 mg of cholesteryl oleate was suspended in 40 ml of jelly to form the CE 18:1 oral administration.
Seven old mice (24 months old) were subjected to the Barnes Maze as described above, and the time the mice spent investigating the “target zone” during the probe trial was investigated. The same seven old mice were then fed 0.5 g of the CE 18:1 enriched jelly once a day (20 mg CE 18:1, 4% w/w), which correlated to a CE 18:1 dosage rate of 470 mg per kg of bodyweight. The mice were the subjected to the Barnes Maze as described above, and the time the mice spent investigating the “target zone” during the probe trial was investigated.

[1] = individual old mice (24 months), probe trial of 180 s, after 0.5 g CE 18:1 enriched jelly once a day orally (20 mg CE 18:1, 470 mg per kg bodyweight), one value per mouse

CCCCCCCC/C=C\CCCCCCCC(=O)O[C@H]1CC[C@@]2(C)C(=CC[C@H]3[C@@H]4CC[C@H]([C@H](C)CCCC(C)C)[C@@]4(C)CC[C@@H]32)C1 [CE 18:1, cholesteryl oleate]
Percentage of time spent at target zone out of 180 sec (%), After CE 18:1, AVERAGE (average of seven old mice (24 months), probe trial, after CE 18:1 jelly orally 470 mg per kg, before CE 18:1: 4.70%): 9.5% | Duration at target zone (s), After CE 18:1, AVERAGE (average of seven old mice (24 months), probe trial, after CE 18:1 jelly orally 470 mg per kg, before CE 18:1: 8.47 s): 17.10 s | Duration at target zone (s), After CE 18:1 [1]: 16.00 s and 16.48 s and 28.68 s and 4.84 s and 23.40 s and 21.28 s and 9.04 s | Percentage of time spent at target zone out of 180 sec (%), After CE 18:1 [1]: 8.89% and 9.16% and 15.93% and 2.69% and 13.00% and 11.82% and 5.02% | Time searching for the escape hatch in the target zone after CE 18:1 versus before (FIG. 11) (probe trial): statistical increase in time searching for the escape hatch in the target zone | Time searching for the escape hatch in the target zone after CE 18:1 versus before (FIG. 11) (probe trial, listed as cholesteryl oleate): improved cognitive function in mice | Time searching for the escape hatch in the target zone after CE 18:1 versus before (FIG. 11) (probe trial, listed as cholesteryl oleate (CE 18:1)): spent more time investigating the target zone
